Data on eight compounds can be found in patent US6441177B1 (Hoffmann-La Roche Inc., priority 1995, dated 2002).

Converted amounts (≈) assume the structure as drawn. Like-named read-outs stand apart in the source and are kept apart here.

Test [1] has as its target T1, human liver microsomal 2,3-oxidosqualene-lanosterol cyclase (OSC) (Homo sapiens, UniProt P48449).
T1 construct: Liver microsomes from a healthy volunteer were prepared in sodium phosphate buffer (pH 7.4); from tissue; host or cells: human liver microsomes from a healthy volunteer
T1 sequence (P48449 1-732): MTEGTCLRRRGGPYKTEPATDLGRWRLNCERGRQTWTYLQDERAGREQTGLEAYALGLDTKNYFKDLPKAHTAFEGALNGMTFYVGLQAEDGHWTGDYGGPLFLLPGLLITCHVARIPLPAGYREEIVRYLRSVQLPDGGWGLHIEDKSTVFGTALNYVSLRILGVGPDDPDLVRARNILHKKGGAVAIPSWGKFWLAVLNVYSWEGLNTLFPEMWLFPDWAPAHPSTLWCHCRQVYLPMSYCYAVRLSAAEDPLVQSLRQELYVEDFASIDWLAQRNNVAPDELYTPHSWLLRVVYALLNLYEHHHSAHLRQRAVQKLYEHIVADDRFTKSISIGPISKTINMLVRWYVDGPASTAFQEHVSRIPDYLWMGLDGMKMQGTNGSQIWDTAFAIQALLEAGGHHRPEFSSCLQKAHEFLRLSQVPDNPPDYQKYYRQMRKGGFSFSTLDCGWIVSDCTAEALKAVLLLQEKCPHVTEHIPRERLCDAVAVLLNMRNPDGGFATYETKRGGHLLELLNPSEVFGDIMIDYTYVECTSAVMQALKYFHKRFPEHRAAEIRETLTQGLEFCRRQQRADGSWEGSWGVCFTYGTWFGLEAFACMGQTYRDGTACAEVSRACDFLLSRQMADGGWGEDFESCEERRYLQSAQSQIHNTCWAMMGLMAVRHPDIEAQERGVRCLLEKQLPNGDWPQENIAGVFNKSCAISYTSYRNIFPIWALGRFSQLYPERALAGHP
The test is described as follows: Inhibition of human liver microsomal 2,3-oxidosqualene-lanosterol cyclase (OSC). It counts as biochemical. The conditions noted are these: human liver microsomes; for IC50: concentration reducing conversion of MOS into lanosterol to 50% of control. How it is done:
Inhibition of Human Liver Microsomal 2,3-Oxidosqualene-lanosterol Cyclase (OSC)
Liver microsomes from a healthy volunteer were prepared in sodium phosphate buffer (pH 7.4). The OSC activity was measured in the same buffer which also contained 1 mM EDTA and 1 mM dithiothreitol. The microsomes were diluted to 0.8 mg/ml protein in cold phosphate buffer. Dry [^14C]R,S-monooxidosqualene (MOS; 12.8 mCi/mmol) was diluted to 20 nCi/μl with ethanol and mixed with phosphate buffer-1% BSA (Bovine Serum Albumin). A stock solution of 1 mM test substance in DMSO was diluted to the desired concentration with phosphate buffer-1% BSA. 40 μl of microsomes were mixed with 20 μl of the solution of the test substance and the reaction was subsequently started with 20 μl of the [^14C]R,S-MOS solution. The final conditions were: 0.4 mg/ml of microsomal proteins and […] of [^14C]R,S-MOS in phosphate buffer, pH 7.4, containing 0.5% albumin, DMSO <0.1% and ethanol <2%, in a total volume of 80 μl.
After 1 hour at 37° C. the reaction was stopped by the addition of 0.6 ml of 10% KOH-methanol, 0.7 ml of water and 0.1 ml of hexane:ether (1:1, v/v) which contained 25 μg of non-radioactive MOS and 25 μg of lanosterol as the carrier. After shaking 1 ml of hexane:ether (1:1, v/v) was added to each test tube, these were again shaken and then centrifuged. The upper phase was transferred into a glass test tube, the lower phase was again extracted with hexane:ether and combined with the first extract. The entire extract was evaporated to dryness with nitrogen and the residue was suspended in 50 μl of hexane:ether and applied to a silica gel plate. Chromatographic separation was effected in hexane:ether (1:1, v/v) as the eluent. […] After drying radioactive MOS and lanosterol were observed on the silica gel plate. The ratio of MOS to lanosterol was determined from the radioactive bands in order to determine the OSC inhibition.
The test was carried out on the one hand with a constant test substance concentration of 100 nM and the percentage OSC inhibition against controls was calculated. In addition, the test was carried out with different test substance concentrations and subsequently the IC50 value was calculated, i.e. the concentration required to reduce the conversion of MOS into lanosterol to 50% of the control value.

The next test concerns plasma cholesterol. The test is described as follows: Cholesterol lowering in fat-fed hamsters. It counts as in vivo. Conditions: fat-fed male golden hamsters, treated 10 days, 200 μmol (about 70-120 mg/kg/ay) in diet, percent of the control animals. How it is done:
Cholesterol Lowering in Fat-fed Hamsters. Male golden hamsters kept individually were pre-treated for 7 days with a diet containing grated coconut (40 cal. % fat). The animals were then divided into groups each comprising 5 animals. During the treatment the animals were maintained on the same diet. Each test substance was firstly homogenized in 9 ml of water and subsequently mixed with the milled diet. The controls received only feed converted into a paste with water. The animals were treated for 10 days with a test substance dosage of 200 μmol (about 70-120 mg/kg/ay). Blood samples (200 μl) were removed via the jugular vein under light anaesthesia on the last day of the pre-treatment and one day after the last administration of test substance. The plasma cholesterol concentration was determined using a calorimetric enzyme method. The plasma lipoproteins were separated by exclusion chromatography ([…] et al., Science Tools, 36, 1992, 10-12). The total cholesterol was determined in each fraction using a fluorometric enzyme method (Gamble et al., J. Lipid Res., 19, 1978, 1068-1071) in order to calculate the amount of cholesterol in the LDL and HDL fractions. The activity on plasma cholesterol and LDL and HDL cholesterol, expressed in percent of the control animals, for the products of Examples 8a and 12 is reproduced in the following Table: […]

The test system of the next test is Aspergillus fumigatus. The test is described as follows: Antifungal activity in vitro, microdilution method. It counts as cell-based. The conditions noted are these: growth inhibition, incubation at 27° C. for 48 hours, read-out: IC50 (mg/ml) for: A. fumigatus after: 48 hours. Here is the method: (§1) Antifungal Activity In Vitro The compounds were tested for antifungal activity against Candida albicans, Cryptococcus neoformans and Aspergillus fumigatus using a microdilution method on microtitre plates (96 wells per plate). Yeast supplemented with 1% glucose and 0.25% di-potassium phosphate was used for the three fungal strains. The fungal cells were inoculated at 3×10^4 CFU (Colony Forming Unit) in […] of medium per well. The medium contained increasing concentrations of test substance. After incubation at 27° C. for 24 or 48 hours the turbidity in each well was measured by a microtitre plate reader. The growth inhibition was calculated in comparison to a control (without test substance). The IC50 value given in the following Table is the concentration of test substance at which the growth is inhibited by 50%.

For a further test, the system named is Candida albicans. The test is described as follows: Antifungal activity in vitro, microdilution method. It counts as cell-based. Conditions: growth inhibition. How it is done:
as §1

The next test deals with Cryptococcus neoformans. The test is described as follows: Antifungal activity in vitro, microdilution method. Conditions: growth inhibition, incubation at 27° C. for 48 hours, read-out: IC50 (mg/ml) for: C. neoformans after: 48 hours. It counts as cell-based. Here is the method:
as §1

Setting [2] is: constant test substance concentration of 100 nM, 1 hour at 37° C., against controls.
The mark [3] stands for this setting: incubation at 27° C. for 24 hrs., read-out: IC50 (mg/ml) for: C. albicans after: 24 hrs.
Setting [4] is: incubation at 27° C. for 48 hrs., read-out: IC50 (mg/ml) for: C. albicans after: 48 hrs.

`C=CCN(C)C/C=C/COc1ccc(C(C)(O)c2ccc(Br)cc2)cc1` (racemic) [Example 8a, (E)-(RS)-1-[4-[4-(allyl-methyl-amino)-but-2-enyloxy]-phenyl]-(4-bromo-phenyl)-ethanol] returned an IC50 in test [1] of 18 nM. The “Inhibition of OSC (%)” value in test [1] (setting [2]) turned out to be 82%. Moreover, in the test on plasma cholesterol, the HDL cholesterol is −18%, the LDL cholesterol was −51% and the Total cholesterol is −30%.

For the compound `CN(C/C=C/COc1ccc(C(=O)c2ccc(Br)cc2)cc1)C1CC1` [Example 12, (E)-(4-bromo-phenyl)-[4-[4-(cyclopropyl-methyl-amino)-but-2-enyloxy]-phenyl]-methanone], the IC50 in test [1] is 19 nM. In test [1] (setting [2]), this compound displayed an inhibition at 0.1 µM of 84%. In the test with plasma cholesterol, the HDL cholesterol was −23%, the LDL cholesterol is −54% and the Total cholesterol is recorded as −25%.

Consider `C=CCN(C)C/C=C/COc1ccc(C(=O)/C=C/C=C(C)C)cc1F` [Example 25, (E)-1-[4-[(E)-4-(allyl-methyl-amino)-but-2-enyloxy]-3-fluoro-phenyl]-5-methyl-hexa-2,4-dien-1-one], for which the IC50 is 0.00082 mg/mL (≈ 2.39 µM) in the test on Aspergillus fumigatus, 0.00032 mg/mL (≈ 0.932 µM) in the test on Candida albicans (setting [3]), under 0.00032 mg/mL with Candida albicans (setting [4]) and 0.001 mg/mL (≈ 2.91 µM) in the test with Cryptococcus neoformans.

With `C=CCN(C)C/C=C/COc1ccc(C(=O)/C=C/C=C(C)C)cc1` [Example 26c, (E)-1-[4-[(E)-4-(allyl-methyl-amino)-but-2-enyloxy]-phenyl]-5-methyl-hexa-2,4-dien-1-one], the IC50 with Aspergillus fumigatus was determined as 0.0084 mg/mL (≈ 25.8 µM); in the test with Candida albicans (setting [3]) it was 0.00049 mg/mL (≈ 1.51 µM); with Candida albicans (setting [4]), 0.0057 mg/mL (≈ 17.5 µM); in the test on Cryptococcus neoformans, 0.0027 mg/mL (≈ 8.3 µM).

Turning to `C=CCN(C)C/C=C/CNc1ccc(C(=O)c2ccc(Br)cc2)cc1F` [Example 29], the IC50 in test [1] was 4.5 nM; in the test on Aspergillus fumigatus, 0.00071 mg/mL (≈ 1.7 µM); in the test on Candida albicans (setting [3]), 0.00071 mg/mL (≈ 1.7 µM); in the test with Candida albicans (setting [4]), 0.021 mg/mL (≈ 50.3 µM); in the test on Cryptococcus neoformans, under 0.00032 mg/mL. Moreover, the inhibition at 0.1 µM in test [1] (setting [2]) was 91%.

Take `C=CCN(C)CCCCCCOc1ccc(C(=O)c2ccc(Br)cc2)c(N)c1` [Example 36, [2-amino-4-[6-(allyl-methyl-amino)-hexyloxy]-phenyl]-(4-bromo-phenyl)-methanone]: the IC50 is 8.9 nM in test [1]; 0.0024 mg/mL (≈ 5.39 µM) with Aspergillus fumigatus; under 0.00032 mg/mL in the test on Candida albicans (setting [3]); 0.0011 mg/mL (≈ 2.47 µM) in the test on Candida albicans (setting [4]); under 0.00032 mg/mL in the test with Cryptococcus neoformans. In addition, in test [1] (setting [2]), the inhibition at 0.1 µM is 92%.

As to `C=CCN(C)CCCCCCOc1ccc(C(=O)c2ccc(Br)cc2)nc1` [Example 43b, [5-[6-(allyl-methyl-amino)-hexyloxy]-pyridin-2-yl]-(4-bromo-phenyl)-methanone], the IC50 is 0.0064 mg/mL (≈ 14.8 µM) in the test with Aspergillus fumigatus, under 0.00032 mg/mL with Candida albicans (setting [3]), 0.005 mg/mL (≈ 11.6 µM) in the test with Candida albicans (setting [4]) and under 0.00032 mg/mL in the test on Cryptococcus neoformans.

With `C=CCN(C)C/C=C(\C)CC/C=C(\C)CCC(=O)CCC=C(C)C` [Example 54b, (9E,13E)-15-(allyl-methyl-amino)-2,9,13-trimethyl-pentadeca-2,9,13-trien-6-one], at 0.1 µM the inhibition in test [1] (setting [2]) was 73%. Also, the IC50 in the test on Aspergillus fumigatus was 0.0061 mg/mL (≈ 18.4 µM); in the test with Candida albicans (setting [3]), under 0.00032 mg/mL; with Candida albicans (setting [4]), 0.0065 mg/mL (≈ 19.6 µM); with Cryptococcus neoformans, 0.00069 mg/mL (≈ 2.08 µM).
